Laboratory results published in patent publication US20040106545A1, “Compounds and methods for modulating cell adhesion” (priority 1996, published 2004).
pIC50: −log10 of the molar value. “Also recorded” adds a separate entry of the source. Positions of bridges follow the written chain, without caps; N, C: chain ends. Residues, ends and D or L forms follow the SMILES beside them.

Assays:
[1] = test system: Madin Darby canine kidney (MDCK) cells; type: cell-based; conditions: for EC50, decrease of electrical resistance across MDCK cell monolayer: 18 hours
Method in brief: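 MDCK monolayers, grown in DMEM with 5% FCS from 300,000 cells per insert, exposed to modulating agent in medium (e.g., 0.5 mg/ml final for 24 hours). Transepithelial electrical resistance measured as an index of tight junction formation.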

[2] = test system: PC-3; type: cell-based, human; conditions: 3 h
Method in brief: (§1)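 Cytotoxicity of N-Ac-CHAVC-NH2 and the control peptide N-Ac-CHGVC-NH2 was assessed by MTT reduction in human endothelial, fibroblast and cancer cell lines at concentrations up to 100 μM. Proliferation was measured separately by ^3H-thymidine incorporation over the same concentration range.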

[3] = test system: WI-38; type: cell-based, human; conditions: 3 h
Method in brief: as §1

[4] = test system: HMVEC; type: cell-based, human; conditions: 3 h
Method in brief: as §1

[5] = test system: HUVEC; type: cell-based, human; conditions: 3 h
Method in brief: as §1

[6] = test system: MDA-MB231; type: cell-based, human; conditions: 3 h
Method in brief: as §1

[7] = test system: IAFp2; type: cell-based, human; conditions: 3 h
Method in brief: as §1

[8] = test system: NRK cells; assay: Disruption of normal rat kidney (NRK) cell adhesion, E-cadherin immunofluorescence; type: cell-based; conditions: 1 mg/mL, 48 hours
Experimental: Within another such assay, the effect of a modulating agent on normal rat kidney (NRK) cells may be evaluated. According to a representative procedure, NRK cells (ATCC #1571-CRL) may be plated at 10-20,000 cells per 35 mm tissue culture flasks containing DMEM with 10% FCS and sub-cultured periodically (Laird et al., J. Cell Biol. 131:1193-1203, 1995). Cells may be harvested and replated in 35 mm tissue culture flasks containing 1 mm coverslips and incubated until 50-65% confluent (24-36 hours). At this time, coverslips may be transferred to a 24-well plate, washed once with fresh DMEM and exposed to modulating agent at a concentration of, for example, 1 mg/mL for 24 hours. Fresh modulating agent may then be added, and the cells left for an additional 24 hours. Cells may be fixed with 100% methanol for 10 minutes and then washed three times with PBS. Coverslips may be blocked for 1 hour in 2% BSA/PBS and incubated for a further 1 hour in the presence of mouse anti-E-cadherin antibody (Transduction Labs, 1:250 dilution). Primary and secondary antibodies may be diluted in 2% BSA/PBS. Following incubation in the primary antibody, coverslips may be washed three times for 5 minutes each in PBS and incubated for 1 hour with donkey anti-mouse antibody conjugated to fluorescein (diluted 1:200). Following further washes in PBS (3×5 min) coverslips can be mounted and viewed by confocal microscopy.
NRK cells (ATCC #1571-CRL) were plated at 10-20,000 cells per 35 mm tissue culture flasks containing DMEM with 10% FCS and sub-cultured periodically (Laird et al., J. Cell Biol. 131:1193-1203, 1995). Cells were harvested and replated in 35 mm tissue culture flasks containing 1 mm coverslips and incubated until 50-65% confluent (24-36 hours). At this time, coverslips were transferred to a 24-well plate, washed once with fresh DMEM and exposed to cyclic peptide solutions (N—Ac-CHAVC-NH2 (SEQ ID NO:10) and N—Ac-CHGVC-NH2 (SEQ ID NO:11)) at a concentration of 1 mg/mL for 24 hours. Fresh peptide solutions were then added and the cells were left for an additional 24 hours. Cells were fixed with 100% methanol for 10 minutes and then washed three times with PBS. Coverslips were blocked for 1 hour in 2% BSA/PBS and incubated for a further 1 hour in the presence of mouse anti-E-cadherin antibody (Transduction Labs, Lexington, Ky.; 1:250 dilution). Primary and secondary antibodies were diluted in 2% BSA/PBS. Following incubation in the primary antibody, coverslips were washed three times for 5 minutes each in PBS and incubated for 1 hour with donkey anti-mouse antibody conjugated to fluorescein (Jackson Immuno Research, West Grove, Pa.; diluted 1:200). Following a further wash in PBS (3×5 min) coverslips were mounted and viewed by confocal microscopy.

[9] = Cytotoxicity, MTT assay, WI-38; type: cell-based; conditions: human, read-out: WI-38 Cytotox (IC50)
Experimental: (§2) N—Ac-CHAVC-NH2 (SEQ ID NO:10) and the control peptide N—Ac-CHGVC-NH2 (SEQ ID NO:11) were evaluated for possible cytotoxic effects on human microvascular endothelial (HMVEC; Clonetics), human umbilical vein endothelial (HUVEC; ATCC #CRL-1730), IAFp2 (human fibroblast cell line; Institute Armand-Frapier, Montreal, Quebec), WI-38 (human fibroblast cell line; ATCC #CCL-75), MDA-MB231 (human breast cancer cell line; ATCC #HTB-26), and PC-3 (human prostate cancer cell line; ATCC #CRL-1435) cells utilizing the MTT assay (Plumb et al., Cancer Res. 49:4435-4440, 1989). Neither of the peptides was cytotoxic at concentrations up to and including 100 μM. Similarly, neither of the peptides was capable of inhibiting the proliferation of the above cell lines at concentrations up to 100 μM, as judged by ^3H-thymidine incorporation assays.

[10] = Cytotoxicity, MTT assay, HUVEC; type: cell-based; conditions: human, HUVEC (human umbilical vein endothelial cells), read-out: HUVEC Cytotox (IC50)
Experimental: as §2

[11] = Cytotoxicity, MTT assay, IAFp2; type: cell-based; conditions: human, read-out: IAFp2 Cytotox (IC50)
Experimental: as §2

[12] = Cytotoxicity, MTT assay, MDA-MB231; type: cell-based, human; conditions: human, MTT assay, read-out: MDA-MB231 Cytotox (IC50)
Method in brief: as §1

Row | Compound | effect on electrical resistance across MDCK cells (in words) [1] | EC50, decrease of electrical resistance across MDCK cell monolayer [1] | pIC50 [2] | pIC50 [3] | pIC50 [4] | pIC50 [5] | pIC50 [6] | pIC50 [7] | E-cadherin expression of NRK cells (immunofluorescence) [8] | disruption of NRK cell adhesion [8] | pIC50 ([9]; WI-38 cells (human fibroblast cell line)) | pIC50 [10] | pIC50 ([11]; IAFp2 cells (human fibroblast cell line)) | pIC50 ([12]; MDA-MB231 cells (human breast cancer cell line)) | pIC50 ([9]; WI-38 fibroblast cell line) | pIC50 ([11]; IAFp2 fibroblast cell line) | pIC50 ([12]; MDA-MB231 breast cancer cell line)
1 | CC(=O)N[C@H]1CSSC[C@@H](C(N)=O)NC(=O)[C@H](CC(=O)O)NC(=O)[C@H](C(C)C)NC(=O)[C@H](C)NC(=O)[C@H](Cc2c[nH]cn2)NC(=O)[C@H](C)NC1=O [N—Ac—CAHAVDC—NH2, N-Ac-Cys-Ala-His-Ala-Val-Asp-Cys-NH2] (Ac-CAHAVDC-NH2; disulfide 1-7) | complete abrogation of E-cadherin specific activity | INACTIVE | < 4.00 | < 4.00 | < 4.00 | < 4.00 | < 4.00 | < 4.00 |  |  |  |  |  |  |  |  | 
2 | CC(=O)N[C@H]1CSSC[C@@H](C(N)=O)NC(=O)[C@H](C(C)C)NC(=O)CNC(=O)[C@H](Cc2c[nH]cn2)NC1=O [N—Ac—CHGVC—NH2, reference compound] |  |  |  |  |  |  |  |  | expressed E-cadherin | had no affect on cell adhesion | < 4.00 | < 4.00 | < 4.00 | < 4.00 |  |  | 
3 | CC[C@H](C)[C@@H]1NC(=O)[C@H](CC(=O)O)NC(=O)[C@H](C(C)C)NC(=O)[C@H](C)NC(=O)[C@H](Cc2c[nH]cn2)NC(=O)[C@H](C)NC(=O)[C@@H](NC(C)=O)CSSC[C@@H](C(N)=O)NC1=O (Ac-CAHAVDIC-NH2; disulfide 1-8) |  | INACTIVE | < 4.00 | < 4.00 | < 4.00 | < 4.00 | < 4.00 | < 4.00 |  |  |  |  |  |  |  |  | 
4 | CC(=O)N[C@H]1CSSC[C@@H](C(N)=O)NC(=O)[C@H](C(C)C)NC(=O)[C@H](C)NC(=O)[C@H](Cc2c[nH]cn2)NC1=O [N—Ac—CHAVC—NH2, N-Ac-Cys-His-Ala-Val-Cys-NH2] |  |  |  |  |  |  |  |  | E-cadherin expression is greatly reduced; also recorded: expressed greatly reduced levels of E-cadherin | NRK cells retract from one another; also recorded: disrupted NRK cell adhesion |  | < 4.00 |  |  | < 4.00 | < 4.00 | < 4.00
